Assay results: patent US6964983B2, “Compounds that modulate PPAR activity and methods for their preparation” (Warner-Lambert Company, LLC, priority 2002, dated 2005)

What was measured:
hPPARα = target: T1, hPPARα (Homo sapiens, UniProt Q07869); test: Transient transfection assay in HepG2 cells, Gal4-hPPARα chimeric receptor, luciferase reporter; assay type: cell-based; details: Hep G2-hAlpha EC50, 24 hours incubation; read-out: EC50α nM (Group)
T1 sequence (Q07869 200-468 limits assumed): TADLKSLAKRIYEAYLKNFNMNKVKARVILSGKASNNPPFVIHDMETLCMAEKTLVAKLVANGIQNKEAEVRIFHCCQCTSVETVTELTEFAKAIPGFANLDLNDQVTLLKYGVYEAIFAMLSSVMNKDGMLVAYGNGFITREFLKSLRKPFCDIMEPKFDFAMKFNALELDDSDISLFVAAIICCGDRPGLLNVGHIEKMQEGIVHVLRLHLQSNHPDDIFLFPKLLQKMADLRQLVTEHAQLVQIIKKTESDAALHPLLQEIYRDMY
Procedure, shortened: (§1)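 HepG2 cells were transiently co-transfected with Gal4-hPPARα or Gal4-hPPARβ chimeras, a UAS-E1B luciferase reporter and a β-gal normalisation plasmid. After re-plating, cells were treated with compound at 50 pM–50 μM for 24 h at 37°C. EC50 values were derived from luciferase read-out normalised to β-gal.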

hPPARβ = target: T2, hPPARβ (Homo sapiens, UniProt Q03181); test: Transient transfection assay in HepG2 cells, Gal4-hPPARβ chimeric receptor, luciferase reporter; assay type: cell-based; details: Hep G2-hBeta EC50, 24 hours incubation; read-out: EC50β nM (Group)
T2 sequence (Q03181 171-441 limits assumed): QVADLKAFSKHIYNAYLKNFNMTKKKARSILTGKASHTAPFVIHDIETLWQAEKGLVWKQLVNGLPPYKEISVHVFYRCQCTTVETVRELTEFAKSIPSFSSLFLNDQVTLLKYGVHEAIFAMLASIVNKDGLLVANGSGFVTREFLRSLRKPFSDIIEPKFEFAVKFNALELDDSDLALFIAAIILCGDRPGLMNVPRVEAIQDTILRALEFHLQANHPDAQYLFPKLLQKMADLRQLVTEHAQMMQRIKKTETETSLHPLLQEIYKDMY
Procedure, shortened: as §1

hApoA1 transgenic mouse = test: Lipid concentrations in the hApoA1 transgenic mouse; assay type: in vivo; details: 30 mg/kg/day, oral gavage
Procedure: B. Effect of PPAR Modulators on Lipid and Human Apoprotein A1 Concentrations in the hApoA1 Transgenic Mouse
Mice, transgenic for human apoA1, were purchased from Jackson laboratories. All animals were allowed normal chow (Ralston-Purina) and water ad libitum in temperature controlled rooms, under a 12-h light, 12-h dark cycle beginning with lights on at 6 AM. During the treatment phase of the study the mice were dosed daily between 6 and 9 AM by oral gavage using a suspension vehicle of 1.5% carboxymethylcellulose plus 0.2 percent Tween-20 (CMC/Tween) containing the specified compounds. Control animals received vehicle alone. Vehicle volume represented 0.25 percent of body weight. Under anesthesia, tail blood was obtained weekly in the morning at the indicated days of study. At termination, tissue samples (liver, intestine, fat, and muscle) were taken to study effects on genes effecting lipid metabolism. Each of the compounds of the present invention that were tested effected a significant increase in HDL over the values observed for the control animals. […] For instance, Example 4 raised HDL-c 97% and lowered triglycerides 65% relative to the control population, Example 6 raised HDL-c 24% and lowered triglycerides 59% relative to the control population, and Example 3 raised HDL-c 9% and lowered triglycerides 70% relative to the control population.

## COc1cc(OCC(=O)O)c(C)cc1SCc1ccc(-c2ccc(C(F)(F)F)cc2)cc1 [Example 4, [5-Methoxy-2-methyl-4-(4′-trifluoromethyl-biphenyl-4-ylmethylsulfanyl)-phenoxy]-acetic acid]
hPPARα
  EC50: < 300 nM
hPPARβ
  EC50: < 300 nM
other
  melting point: 170 to 171 °C
hApoA1 transgenic mouse
  lowered triglycerides relative to the control population: 65%
  raised HDL-c relative to the control population: 97%
